According to patent US12263248B2, “Compounds and compositions for intracellular delivery of therapeutic agents” (ModernaTX, Inc., priority 2018, dated 2025):

Assays:
[1] = Particle size and polydispersity index of nanoparticle compositions (Zetasizer Nano ZS); format: physicochemical
How it was run: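 Nanoparticle compositions are diluted in 1×PBS, then size and polydispersity index are read on a Zetasizer Nano ZS instrument.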

[2] = Encapsulation efficiency of RNA (QUANT-IT RIBOGREEN RNA assay); format: physicochemical; details: for % EE: Table 1D, for subcutaneous administration, # formulated with hEPO mRNA
How it was run: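 RiboGreen fluorescence (ex ~480, em ~520 nm) compared between intact samples and Triton X-100-lysed samples after 15 min at 37 °C in TE buffer, pH 7.5. Percent free RNA is the blank-corrected intact/disrupted ratio.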

[3] = Apparent (surface) pKa of the LNP formulation (TNS assay); format: physicochemical; details: for pKa: Table 1A
How it was run: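 LNP (0.04 mg/mL mRNA) mixed with TNS reagent in 21 buffers spanning about pH 3-12, in triplicate; fluorescence plotted against pH as sigmoidal curve. Apparent pKa taken as […] curve inflection point; validated in 1× PBS and 20 mM Tris w/8% sucrose.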

[4] = tested on: luciferase (Luc) mRNA; assay: Luc expression, whole body bioluminescence after intravenous administration to mice; format: in vivo; details: for Lipid/MC3 AUC / AUC (p/s * h): Table 3D; for Lipid/MC3 AUC / AUC (p/s * h) / Novel lipid/MC3 ratio, 6 hr. timepoint, i.v. / 6 h BLI Lipid/MC3: intravenous; for AUC (p/s * h): Luc; for Novel lipid/MC3 ratio, 6 hr. timepoint, i.v.: luciferase, relative to MC3, Table 3G; for Total Flux 3 hours / Total Flux 6 hours / Total Flux 24 hours: mice, i.v., 0.5 mg/kg, Luc mRNA; for 6 h BLI Lipid/MC3: Table 3E
How it was run: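 Luc mRNA nanoparticle formulations given intravenously to mice (n=6) at 0.5 mg/kg; whole-body bioluminescence imaged at 3, 6 and 24 h. CD-1 mice received IP D-luciferin (200 μL of 15 mg/mL) 15 min before imaging; total flux quantified by region of interest.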

[5] = Lipid clearance: lipid level in mouse liver tissue (LC-MS/MS); format: in vivo; details: for % Dose Remaining in Liver 6 h: Table 3D, intravenous; for % Remaining dose at 6 h / % Remaining dose at 24 h: Table 3E, mouse liver
Description: Quantification of Lipid by LC-MS/MS: Liver samples were homogenized following addition of 19 eq. (w/v) of water (DF=20). Protein was precipitated and analyzed against calibration standards prepared in matching blank. Chromatographic separation and quantification was accomplished with a LC-MS/MS System. Samples were injected and separated via HPLC A triple-quadrupole MS/MS system operated in positive ion mode was used for signal detection.

[6] = tested on: luciferase (Luc) mRNA; assay: Luc expression in liver, lung, spleen and femur 6 hours after intravenous administration; format: in vivo; details: mice, 0.5 mpk; for Total Flux Liver / Total Flux Lung / Total Flux Spleen: intravenous
How it was run: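 LNP-formulated mRNA given IV to mice (n=3) at 0.5 mpk; at 6 h, bioluminescence imaged ex vivo 15 min after IP D-luciferin (15 mg/mL, 200 μL), organs imaged within 25 min. Values are total flux by region of interest.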

[7] = tested on: hEPO mRNA; assay: hEPO expression after subcutaneous administration to mice; format: in vivo, female CD-1 mice; details: for hEPO expression Lipid/Compound 18 ratio, 6 hr. / hEPO expression Lipid/Compound 18 ratio, AUC: 0.5 mpk
Description: The effect of the lipids of the disclosure on protein expression upon subcutaneous administration was studied. Formulations containing lipids of the disclosure and an mRNA expressing luciferase or hEPO were administered subcutaneously to female CD-1 mice at 0.5 mpk. Expression levels were obtained via whole body luminescent imaging (BLI) at 3, 6 and 24 hours after injection and expression levels in liver, spleen and at the injection site were evaluated ex vivo after 24 hours. […] See also Tables 35 and 36, and FIGS. 19 and 27.
Table 36 summarizes the hEPO expression levels using various nanoparticle compositions of the disclosure as compared to the hEPO expression level using a formulation containing MC3 or Compound 18, following subcutaneous administration, as described above.

[8] = tested on: hEPO mRNA; assay: hEPO expression after intravenous administration to rats; format: in vivo, rat; details: Table 19B
Description: The expression of hEPO and cytokine induction in rats intravenously administered a nanoparticle composition at a dose of 2.0 mpk was measured at 6 h.
(§1) The expression of hEPO in rats intravenously administered a nanoparticle composition at a dose of 0.2 mpk or 2.0 mpk was measured at 6 hours. Table 16 summarize the ratio of hEPO expression levels using various nanoparticle compositions as compared to the hEPO expression level using MC3 formulation and the lipid levels in the liver measured 48 hours after administration, as described above. Tables 17 and 18 summarize the lipid levels in the liver and spleen measured 48 hours after administration of Compounds 28, 33, 53, and 54. Liver and spleen levels represent the average values calculated for 3 rats in each group. As is shown in Tables 17 and 18, less than 10% of Compounds 28, 33, 53, and 54 remained in the liver after 48 hours, while greater than 60% of MC3 remained.
The expression of hEPO induced by intravenous administration to rats of nanoparticle compositions at various doses was measured at 2, 4, 6, 8, 24, and 48 hour time points. FIGS. 3-6 respectively summarize the hEPO expression measured upon intravenous administration of formulations including Compounds 26, 18, 25, and MC3 to rat at various doses. The lipid levels of Compound 26 in the liver after 48 hours were about 19%.
(§2) 005781 The expression of hEPO and lipid levels in the liver and spleen in rats intravenously administered a nanoparticle composition at a dose of 0.2 mpk was measured at various time points. Compounds 18 and 25 were selected for comparison with MC3. Lipids were formulated according to the standard MC3 formulation described above. Rats were administered intravenously a single 0.2 mpk dose and expression monitored at 0.25, 0.5, 1, 2, 4, 8, 24, and 48 hours after administration.
Blood collection and analysis for hEPO. Blood was collected from mice or rats via the tail vein and hEPO concentrations were determined using a hEPO ELISA assay.

[9] = Residual lipid levels in rat liver and spleen (UPLC-MS); format: in vivo; details: Table 19B, liver, 24 h
Description: At 48 h liver tissue was harvested for lipid quantification. To pre-weighed tissues, Milli-Q water was added (900 μL water per 100 mg tissue). Tissues were homogenized using an Omni probe homogenizer until uniform. 50 μL of samples and matrix calibration standards were aliquoted into a 96-well plate. 50 μL of blank matrix for matrix blanks and control blanks were aliquoted. 400 μL is spiking solution were manually added to all samples except matrix blanks. 400 μL of 50:50 ACN:IPA were manually added to matrix blanks. The plate was covered and the samples vortexed and centrifuged for 5 minutes at >3000 rpm. 200 μL of the samples were transferred into a clean 96-well plate for analysis. Samples were analyzed on a Waters Acquity UPLC using a Higgins Analytical Clipeus C8 column ([…], 30×2.1 mm) and a gradient of either 70-95% or 60-95% (Mobile Phase A: 5 mM ammonium formate in 50:50:1 H2O:MeOH:formic acid; Mobile Phase B: 5 mM ammonium formate in 100:1 MeOH:formic acid) over 1.3 min at 1.2 mL/min (column temperature 55° C.). Detection was based on electrospray ionization (ESI) in positive mode using a Sciex API5500 Mass Spectrometer.
as §1, §2

[10] = Table 1A, lipid:DSPC:cholesterol:PEG-DMG 50:10:38.5:1.5 mol %
[11] = Table 1D, for subcutaneous administration, # formulated with hEPO mRNA
[12] = second column (head also says 6 h)
[13] = Table 1B, formulated with hEPO mRNA

Row | Compound | PDI ([1]; Table 1A) | Size (nm) [1, 10] [nm] | PDI [1, 11] | Size (nm) [1, 11] [nm] | EE (%) ([2]; Table 1A) | % EE [2] [%] | pKa [3] | hEPO expression Lipid/Compound 18 ratio, 6 hr. [7] | hEPO expression Lipid/Compound 18 ratio, AUC [7] | 6 h BLI Lipid/MC3 [4] | % Remaining dose at 6 h [5] [%] | % Remaining dose at 24 h [5] [%] | further results
1 | CCCCCCCCCC(=O)OCCCCCCCN(CCO)CCCCCCCC(=O)OC(CCCCCCCC)CCCCCCCC [Compound 96, 7-((8-(Heptadecan-9-yloxy)-8-oxooctyl)(2-hydroxyethyl)amino)heptyl decanoate] | 0.160 | 120.5 | 0.14 | 82.6 | 79.04 | 94.4 | 6.600 | 1.98 | 1.72 |  |  |  | Lipid/MC3 AUC [4]: 6.3; AUC (p/s * h) [4]: 1.209E+012 p/s * h; Novel lipid/MC3 ratio, 6 hr. timepoint, i.v. [4]: 6.11; Total Flux 3 hours [4]: 4.54E+10; Total Flux 6 hours [4]: 1.05E+11; Total Flux 24 hours [4]: 3.86E+09; % Dose Remaining in Liver 6 h [5, 12]: <1%; % Dose Remaining in Liver 6 h [5]: <1%; Flux in the liver ([6]; i.v., in words): highest; Total Flux Liver [6]: 1.56E+10; Total Flux Lung [6]: 3.43E+07; Total Flux Spleen [6]: 3.39E+08
2 | CCCCCCCCCC(=O)OC(C)CCCCCCN(CCO)CCCCCCCC(=O)OC(CCCCCCCC)CCCCCCCC (stereo not shown) [Compound 98, 8-((8-(Heptadecan-9-yloxy)-8-oxooctyl)(2-hydroxyethyl)amino)octan-2-yl decanoate] |  |  | 0.14 | 74.8 | 94.4 | 93.8 | 6.53 | 0.69 | 0.69 | 3.16 | 26.8 | 14.7 | 
3 | CCCCCCCCCC(=O)OCCCCCCCN(CCO)CCCCCCCOC(=O)C(CCCCCCCC)CCCCCCCC [Compound 151, 7-((7-(Decanoyloxy)heptyl)(2-hydroxyethyl)amino)heptyl 2-octyldecanoate] | 0.140 | 105.7 | 0.13 | 77.6 | 87.86 | 95.4 | 6.593 | 0.73 | 0.71 |  |  |  | Apparent pKa ([3]; Table 3G): 6.59; Lipid/MC3 AUC [4]: 3.7; AUC (p/s * h) [4]: 7.010E+011 p/s * h; Novel lipid/MC3 ratio, 6 hr. timepoint, i.v. [4]: 3.29; Total Flux 3 hours [4]: 5.63E+10; Total Flux 6 hours [4]: 5.68E+10; Total Flux 24 hours [4]: 2.23E+09; % Dose Remaining in Liver 6 h [5, 12]: <1%; % Dose Remaining in Liver 6 h [5]: <1%; Total Flux Liver [6]: 4.72E+09; Total Flux Lung [6]: 9.20E+06; Total Flux Spleen [6]: 9.27E+07
4 | CCCCCCCCCOC(=O)C(C)CCCCCCN(CCO)CCCCCCCOC(=O)C(CCCCCCCC)CCCCCCCC (stereo not shown) [Compound 163, 7-((2-Hydroxyethyl)(7-methyl-8-(nonyloxy)-8-oxooctyl)amino)heptyl 2-octyldecanoate] | 0.10 | 88.3 | 0.10 | 78.0 | 93.2 | 92.8 | 6.41 | 0.99 | 0.96 | 3.45 | 34.8 | 19.4 | 
5 | CCCCCCCCCOC(=O)C(C)CCCCCCN(CCO)CCCCCCCC(=O)OC(CCCCCCCC)CCCCCCCC (stereo not shown) [Compound 164, Nonyl 8-((8-(heptadecan-9-yloxy)-8-oxooctyl)(2-hydroxyethyl)amino)-2-methyloctanoate] | 0.13 | 84.5 | 0.08 | 75.7 | 91.2 | 94.1 | 6.39 | 0.50 | 0.56 | 1.24 | 39.0 | 26.2 | 
6 | CCCCCCCCCC(=O)OC(C)CCCCCCN(CCO)CCCCCCCOC(=O)C(CCCCCCCC)CCCCCCCC (stereo not shown) [Compound 165, 7-((7-(Decanoyloxy)octyl)(2-hydroxyethyl)amino)heptyl 2-octyldecanoate] | 0.14 | 84.6 | 0.14 | 74.3 | 92.9 | 93.5 | 6.50 | 0.63 | 0.64 | 2.12 | 29.1 | 12.7 | 
7 | CCCCCCCCCOC(=O)CCCCCCCN(CCCCCCCC(=O)OC(CCCCCCCC)CCCCCCCC)CCCN/C(=N/S(C)(=O)=O)N(C)C [Compound 233, Heptadecan-9-yl (Z)-8-((3-(3,3-dimethyl-2-(methylsulfonyl)guanidino)propyl)(8-(nonyloxy)-8-oxooctyl)amino)octanoate] | 0.11 | 66.9 | 0.13 | 87.0 | 97.81 | 97.5 |  |  |  |  |  |  | PDI [1, 13]: 0.21; Size (nm) [1, 13]: 93.7 nm; EE (%) [2, 13]: 97.6%; AUC (hEPO) [8]: 129000 pg·h/mL; Lipid/MC3 ([hEPO] ratio) ([8]; relative to MC3): 0.00664; Lipid/MC3 AUC ([8]; relative to MC3): 0.01; [hEPO] ([8]; species, dose and time not given): 9800 pg/mL; % dose remaining, liver, 24 h [9]: 0.07%; Novel lipid/MC3 expression ratio, 6 hr. time point, s.c. hEPO 0.5 mpk ([7]; relative to MC3): 0.03
